Experiments:
[1] = test system: anti-IgM-induced expression of CD69 on CD19 positive cells (B cells) in human PBMCs; experiment: Assay C: PBMC IC50 assay (anti-IgM-induced CD69 expression); format: cell-based; conditions: anti-IgM stimulation
Description: Btk is critical for mediating the signalling of B cell antigen receptor (BCR) after anti-IgM stimulation. Based on this principle, a functional cell-based assay was established to determine the potency of compounds at inhibiting anti-IgM-induced expression of CD69, a downstream BCR signaling event, in freshly isolated human peripheral blood mononuclear cells (PBMCs). In the assay, a 90 μl PBMC suspension containing 2.5×10^5 cells was pre-treated with 10 μl of test compound at various concentrations for an hour, and then incubated overnight (approximately 16-18 hours) with 5 μl 420 μg/ml affiniPure F(ab′)2 fragment goat anti-human IgM Fc fragment per well (Dianova, Cat. No.: 109-006-129). After the incubation, the cells were washed and immunostained with an APC-labeled mouse anti-human CD69 (BD Biosciences; clone: FN50), a PerCP-Cy5.5 labelled mouse anti-human CD19 (BD Biosciences; clone: SJ25C1) and a FITC-labelled mouse anti-human CD3 (BD Biosciences; clone: HIT3a), and fixed for flow cytometric analysis of CD69 expression on CD19 positive cells (B cells). The percentage of CD69 expressing CD19 positive cells was plotted against the concentrations of test compounds to obtain a concentration response curve, and calculate an IC50 value as a measure of the potency of test compounds in the assay.

[2] = biological target: full-length human BTK (Homo sapiens (Human), UniProt Q06187); experiment: Assay A: microfluidic off-chip mobility shift assay against BTK enzyme; format: biochemical
Description: Assay A: Microfluidic Off-Chip Mobility Shift Assay Protocol for Potency Assessment Against BTK Enzyme
The protocol below describes microfluidic, off-chip mobility shift kinase assay to measure inherent potency of compounds against BTK enzyme.
5 uL of enzyme buffer and 7.5 uL of ATP/kinKDR peptide substrate mix were added to Matrix (#115304) 384-well, sterile, polypropylene plates (Thermo Fisher Scientific, Hudson, N.H.) with 125 nL of serially diluted compounds prepared in 100% DMSO, and incubated for 90 min. at 27° C. Following the incubation period, reactions were stopped by adding 60 uL stop buffer consisting of 100 mM HEPES, pH 7.5, 0.015% Brij-35 (30%), 0.277% Coating Reagent #3 (Caliper Life Sciences, Mountain View, Calif.), 5% DMSO. Stopped reactions were monitored at −2 PSI, −3000 V/−700 V in a LabChip 3000 plate reader from Caliper Life Sciences, a PerkinElmer Company (Hopkinton, Mass.), and the activity was measured by off-chip mobility shift assay measuring the charge/mass difference between substrate and product resulting from peptide phosphorilation. IC50 and efficacy were determined by plotting log [Inhibitor] vs. % Activity in GeneData Screener (Basel. Switzerland).

[3] = biological target: BTK C481S (His-TEV-hsBTK(328-659)(C481S)) (Homo sapiens (Human), UniProt Q06187, C481S); experiment: Assay B: microfluidic off-chip mobility shift assay against BTK C481S enzyme; format: biochemical; conditions: BTK C481S mutant
Description: The mechanics of the assay platform are described by the vendor (PerkinElmer, Hopkinton, Mass.) on their website at the following URL: http://caliperls.com.
5 uL of enzyme buffer and 7.5 uL of ATP/KinKDR peptide substrate mix were added to Matrix (#4315) 384-well, sterile, flat-bottom polypropylene plates (Thermo Fisher Scientific, Hudson, N.H.) with 125 nL of serially diluted compounds prepared in 100% DMSO, and incubated for 90 min. at 25° C. Following the incubation period, reactions were terminated by adding 65 uL quench buffer consisting of 100 mM HEPES, pH 7.5, 0.015% Brij-35 (30%), 0.277% Coating Reagent #3 (PerkinElmer, Mountain View, Calif.), 5% DMSO. Terminated reactions were monitored at −2 PSI, −3000 V/−700 Volts in a LabChip 3000 plate reader from Caliper Life Sciences, a PerkinElmer Company (Hopkinton, Mass.), and the activity was quantified by laser-induced fluorescence measuring the charge/mass difference between substrate and product resulting from peptide phosphorylation. IC50 and efficacy were determined by plotting log [Inhibitor] vs. % Activity in GeneData Screener (Basel, Switzerland).

Sequence of full-length human BTK (Q06187 whole entry): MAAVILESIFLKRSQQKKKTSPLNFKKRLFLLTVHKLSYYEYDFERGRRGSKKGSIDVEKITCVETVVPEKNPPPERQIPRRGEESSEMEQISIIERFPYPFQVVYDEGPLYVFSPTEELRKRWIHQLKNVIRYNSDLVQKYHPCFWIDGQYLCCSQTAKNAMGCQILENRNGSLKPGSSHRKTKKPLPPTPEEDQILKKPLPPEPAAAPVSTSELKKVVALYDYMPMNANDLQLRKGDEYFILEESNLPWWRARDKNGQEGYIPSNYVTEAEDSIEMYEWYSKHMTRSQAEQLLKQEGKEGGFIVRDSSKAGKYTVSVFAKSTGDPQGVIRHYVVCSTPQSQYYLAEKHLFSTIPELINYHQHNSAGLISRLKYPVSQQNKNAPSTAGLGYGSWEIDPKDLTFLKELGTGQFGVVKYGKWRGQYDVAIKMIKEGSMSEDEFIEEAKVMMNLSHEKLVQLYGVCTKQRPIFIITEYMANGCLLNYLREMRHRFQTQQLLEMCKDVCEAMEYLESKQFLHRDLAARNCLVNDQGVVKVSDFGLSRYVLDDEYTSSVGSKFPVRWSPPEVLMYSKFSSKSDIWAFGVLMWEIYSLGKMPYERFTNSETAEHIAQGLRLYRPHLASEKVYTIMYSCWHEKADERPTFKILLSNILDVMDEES
Sequence of BTK C481S (His-TEV-hsBTK(328-659)(C481S)) (Q06187 328-659 C481S): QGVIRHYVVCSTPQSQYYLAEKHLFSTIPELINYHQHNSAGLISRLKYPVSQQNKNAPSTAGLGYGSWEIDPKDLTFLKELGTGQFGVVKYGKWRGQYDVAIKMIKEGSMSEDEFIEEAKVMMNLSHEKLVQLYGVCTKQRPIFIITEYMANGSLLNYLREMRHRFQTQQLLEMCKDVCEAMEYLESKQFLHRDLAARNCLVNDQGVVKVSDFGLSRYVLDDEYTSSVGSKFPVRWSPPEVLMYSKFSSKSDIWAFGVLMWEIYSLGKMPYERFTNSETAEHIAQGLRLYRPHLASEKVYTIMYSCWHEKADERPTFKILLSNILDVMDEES

Row | IC50 [2] [nM] | IC50 [3] [nM] | SMILES | IC50 [1] [nM]
1 | – | – | CC(C)(C)c1noc(C(=O)NCc2ccc(-c3ccnc4[nH]c(C5CC5)nc34)cc2F)n1 [Example 28, 3-tert-Butyl-[1,2,4]oxadiazole-5-carboxylic acid 4-(2-cyclopropyl-3H-imidazo[4,5-b]pyridin-7-yl)-2-fluoro-benzylamide] | 1000 to 5000
2 | < 100 | – | Cn1cc(-c2nc3c(-c4cnc(CNC(=O)c5noc(C(C)(C)C)n5)c(F)c4)ccnc3[nH]2)cn1 [Example 12, 5-tert-Butyl-[1,2,4]oxadiazole-3-carboxylic acid {3-fluoro-5-[2-(1-methyl-1H-pyrazol-4-yl)-3H-imidazo[4,5-b]pyridin-7-yl]-pyridin-2-ylmethyl}-amide] | 100 to 1000
3 | – | – | Cn1cc(-c2nc3c(-c4ccc(CNC(=O)C5CCC(C(C)(C)C)CC5)c(F)c4)ccnc3[nH]2)cn1 (centres unmarked) [Example 15, 4-tert-Butyl-cyclohexanecarboxylic acid 2-fluoro-4-[2-(1-methyl-1H-pyrazol-4-yl)-3H-imidazo[4,5-b]pyridin-7-yl]-benzylamide] | 1000 to 5000
4 | < 100 | – | CCn1cc(-c2nc3c(-c4ccc(CNC(=O)c5noc(C(C)(C)C)n5)c(F)c4)ccnc3[nH]2)cn1 [Example 131, 5-tert-Butyl-[1,2,4]oxadiazole-3-carboxylic acid 4-[2-(1-ethyl-1H-pyrazol-4-yl)-3H-imidazo[4,5-b]pyridin-7-yl]-2-fluoro-benzylamide] | < 100
5 | – | – | Cn1cc(-c2nc3c(-c4ccc(CNC(=O)c5cc6c(s5)CCCC6)c(F)c4)ccnc3[nH]2)cn1 [Example 132, N-(2-fluoro-4-(2-(1-methyl-1H-pyrazol-4-yl)-3H-imidazo[4,5-b]pyridin-7-yl)benzyl)-4,5,6,7-tetrahydrobenzo[b]thiophene-2-carboxamide] | 100 to 1000
6 | < 100 | – | CN(C)C(=O)N1CC=C(c2nc3c(-c4ccc(CNC(=O)c5noc(C(C)(C)C)n5)c(F)c4)ccnc3[nH]2)CC1 [Example 143, 4-[7-(4-{[(5-tert-Butyl-[1,2,4]oxadiazole-3-carbonyl)-amino]-methyl}-3-fluoro-phenyl)-3H-imidazo[4,5-b]pyridin-2-yl]-3,6-dihydro-2H-pyridine-1-carboxylic Acid Dimethylamide] | < 100
7 | < 100 | – | COc1cccc(-c2nc3c(-c4ccc(CNC(=O)c5noc(C(C)(C)C)n5)c(F)c4)ccnc3[nH]2)c1 [Example 73, 5-tert-Butyl-N-([2-fluoro-4-[2-(3-methoxyphenyl)-3H-imidazo[4,5-b]pyridin-7-yl]phenyl]methyl)-1,2,4-oxadiazole-3-carboxamide] | 100 to 1000
8 | – | – | Cn1cc(-c2nc3c(-c4ccc(CNC(=O)c5nc(C6(C)CC6)no5)c(F)c4)ccnc3[nH]2)cn1 [Example 165, N-([2-fluoro-4-[2-(1-methyl-1H-pyrazol-4-yl)-3H-imidazo[4,5-b]pyridin-7-yl]phenyl]methyl)-3-(1-methylcyclopropyl)-1,2,4-oxadiazole-5-carboxamide] | 100 to 1000
9 | < 100 | < 100 | CC(C)(C)c1ccc(C(=O)NCc2ccc(-c3ccnc4[nH]c(C5CC5)nc34)cc2F)cc1 [Example 26, 4-tert-Butyl-N-[4-(2-cyclopropyl-3H-imidazo[4,5-b]pyridin-7-yl)-2-fluoro-benzyl]-benzamide] | –
10 | 1000 to 5000 | 1000 to 5000 | Cn1cc(-c2nc3c(-c4ccc(C(C)(C)NC(=O)C(N)=O)c(F)c4)ccnc3[nH]2)cn1 [Example 102, N-(1-{2-Fluoro-4-[2-(1-methyl-1H-pyrazol-4-yl)-3H-imidazo[4,5-b]pyridin-7-yl]-phenyl}-1-methyl-ethyl)-oxalamide] | –
11 | 1000 to 5000 | 100 to 1000 | Cn1cc(-c2nc3c(-c4ccc(CO)c(F)c4)ccnc3[nH]2)cn1 [Example 32, {2-Fluoro-4-[2-(1-methyl-1H-pyrazol-4-yl)-3H-imidazo[4,5-b]pyridin-7-yl]-phenyl}-methanol] | –
12 | 1000 to 5000 | 100 to 1000 | CC(C)(C)c1noc(C(=O)NCc2ccc(-c3ccnc4[nH]c(C5CCNC(=O)C5)nc34)cc2F)n1 (centres unmarked) [Example 31, 3-tert-Butyl-[1,2,4]oxadiazole-5-carboxylic acid 2-fluoro-4-[2-(2-oxo-piperidin-4-yl)-3H-imidazo[4,5-b]pyridin-7-yl]-benzylamide] | –
13 | < 100 | < 100 | CC(C)(C)c1noc(C(=O)NCc2ccc(-c3ccnc4[nH]c(-c5cccnc5)nc34)cc2F)n1 [Example 149, 3-(tert-butyl)-N-(2-fluoro-4-(2-(pyridin-3-yl)-3H-imidazo[4,5-b]pyridin-7-yl)benzyl)-1,2,4-oxadiazole-5-carboxamide] | –
14 | 1000 to 5000 | 1000 to 5000 | CC(C)(C)c1ccc(C(=O)Nc2cccc(-c3ccnc4[nH]c(-c5ccc(C(=O)N6CCOCC6)cc5)nc34)c2CO)cc1 [Example 46, 4-tert-Butyl-N-[2-(hydroxymethyl)-3-(2-[4-[(morpholin-4-yl)carbonyl]phenyl]-3H-imidazo[4,5-b]pyridin-7-yl)phenyl]benzamide] | –
15 | > 5000 | > 5000 | Cn1cc(-c2nc3c(-c4ccc5c(c4)CN(C(=O)c4nc(C(C)(C)C)no4)CC5)ccnc3[nH]2)cn1 [Example 155, (3-tert-Butyl-[1,2,4]oxadiazol-5-yl)-{7-[2-(1-methyl-1H-pyrazol-4-yl)-3H-imidazo[4,5-b]pyridin-7-yl]-3,4-dihydro-1H-isoquinolin-2-yl}-methanone] | –
16 | 1000 to 5000 | > 5000 | Cc1c(CNC(=O)c2noc(C(C)(C)C)n2)cccc1-c1ccnc2[nH]c(-c3cnn(C)c3)nc12 [Example 88, 5-tert-Butyl-N-([2-methyl-3-[2-(1-methyl-1H-pyrazol-4-yl)-3H-imidazo[4,5-b]pyridin-7-yl]phenyl]methyl)-1,2,4-oxadiazole-3-carboxamide] | –
17 | < 100 | < 100 | Cn1cc(-c2nc3c(-c4ccc(CNC(=O)c5cnc(C6CC6)o5)c(F)c4)ccnc3[nH]2)cn1 [Example 18] | –
18 | < 100 | < 100 | CCn1cc(C(=O)NCc2ccc(-c3ccnc4[nH]c(-c5cnn(C)c5)nc34)cc2F)cn1 [Example 20, 1-Ethyl-1H-pyrazole-4-carboxylic acid 2-fluoro-4-[2-(1-methyl-1H-pyrazol-4-yl)-3H-imidazo[4,5-b]pyridin-7-yl]-benzylamide] | –
19 | 100 to 1000 | 1000 to 5000 | Cn1cc(-c2nc3c(-c4ccc5c(c4)CN(C(=O)c4nc(C(C)(C)C)no4)C5)ccnc3[nH]2)cn1 [Example 156, (3-tert-Butyl-[1,2,4]oxadiazol-5-yl)-{5-[2-(1-methyl-1H-pyrazol-4-yl)-3H-imidazo[4,5-b]pyridin-7-yl]-1,3-dihydro-isoindol-2-yl}-methanone] | –
20 | < 100 | < 100 | CC(C)(C)c1nc(C(=O)NCc2ccc(-c3ccnc4[nH]c(-c5cnn(CCN6CCOCC6)c5)nc34)cc2F)no1 [Example 119, 5-tert-Butyl-[1,2,4]oxadiazole-3-carboxylic acid 2-fluoro-4-{2-[1-(2-morpholin-4-yl-ethyl)-1H-pyrazol-4-yl]-3H-imidazo[4,5-b]pyridin-7-yl}-benzylamide] | –

Row | SMILES | IC50 [2] [nM] | IC50 [3] [nM] | IC50 [1] [nM]
21 | Cn1cc(-c2nc3c(-c4ccc(CNC(=O)C5CC(OC(C)(C)C)C5)c(F)c4)ccnc3[nH]2)cn1 (centres unmarked) [Example 60, 3-(tert-Butoxy)-N-([2-fluoro-4-[2-(1-methyl-1H-pyrazol-4-yl)-3H-imidazo[4,5-b]pyridin-7-yl]phenyl]methyl)cyclobutane-1-carboxamide] | 100 to 1000 | 100 to 1000 | –
